Measured values taken from BindingDB's records for PubMed 27021004 (University of Warwick, 2016).

Molecular target: T1, Phospho-N-acetylmuramoyl-pentapeptide-transferase (Bacillus subtilis (strain 168), UniProt Q03521)
T1 sequence (Q03521 whole entry): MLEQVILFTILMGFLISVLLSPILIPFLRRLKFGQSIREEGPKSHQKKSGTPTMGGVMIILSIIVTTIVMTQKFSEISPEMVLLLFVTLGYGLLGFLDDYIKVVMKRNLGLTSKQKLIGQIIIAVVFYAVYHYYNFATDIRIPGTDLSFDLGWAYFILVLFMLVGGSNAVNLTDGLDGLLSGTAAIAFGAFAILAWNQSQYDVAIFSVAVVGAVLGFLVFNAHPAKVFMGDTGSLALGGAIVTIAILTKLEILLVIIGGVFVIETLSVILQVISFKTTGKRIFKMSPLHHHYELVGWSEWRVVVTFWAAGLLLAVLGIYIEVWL
Assay: Inhibition of Bacillus subtilis MraY

Compound: NC[C@H]1O[C@@H](O[C@@H](Cn2cc(CCCCCO)nn2)[C@H]2O[C@@H](n3ccc(=O)[nH]c3=O)[C@H](O)[C@@H]2O)[C@H](O)[C@@H]1O
- IC50: 400 nM
